{"source": "patent EP4810038A1", "about": "“METHOD FOR TREATING ALK-POSITIVE OR ROS1-POSITIVE NON-SMALL CELL LUNG CANCER” (Shenzhen TargetRx Co., Ltd., priority 2023, dated 2025)", "tested_on": "ALK fusion", "experiment": "Phase I clinical trial: biomarker analysis of 26 subjects previously treated with at least one ALK inhibitor", "key": {"[1]": {"details": "bypass signaling alteration BRCA1"}, "[2]": {"details": "bypass signaling alteration BRCA2"}, "[3]": {"details": "bypass signaling alteration CCNE1"}, "[4]": {"details": "bypass signaling alteration CDKN2A"}, "[5]": {"details": "bypass signaling alteration EGFR"}, "[6]": {"details": "bypass signaling alteration IGF1R"}, "[7]": {"details": "bypass signaling alteration KIT"}, "[8]": {"details": "bypass signaling alteration MET"}, "[9]": {"details": "bypass signaling alteration RB1"}, "[10]": {"details": "bypass signaling alteration TP53"}}, "note": "“And” between values parts separate entries of the source, which are not always exact repeats. Identical values can stand only once.", "data": [{"smiles": "[2H]C([2H])([2H])n1nc2c(c1C#N)-c1cnc(N)c(c1)O[C@H](C)c1cc(F)ccc1C(=O)N(C)C2", "note": "[compound A, (10R)-7-amino-12-fluoro-2-(methyl-d3)-10,16-dimethyl-15-oxo-10,15,16,17-tetrahydro-2H-8,4-(metheno)pyrazolo[4,3-h][2,5,11]benzoxadiazacyclotetradecine-3-carbonitrile]", "values": [{"measurement": "PFS, mutant TP53 versus wild-type TP53", "setting": "ALK TKI resistance subgroup, P=0.235", "result": "no difference"}, {"measurement": "Disease control rate (CR + PR + SD)", "setting": "ALK fusion (all 26 subjects)", "result": "20/26"}, {"measurement": "Overall response rate (CR + PR)", "setting": "ALK fusion (all 26 subjects)", "result": "11/26"}, {"measurement": "Partial response", "setting": "ALK fusion (all 26 subjects)", "result": "11 and 11/26"}, {"measurement": "Progressive disease", "setting": "ALK fusion (all 26 subjects)", "result": "6/26"}, {"measurement": "Stable disease", "setting": "ALK fusion (all 26 subjects)", "result": "9/26"}, {"measurement": "Disease control rate (CR + PR + SD)", "setting": "ALK fusion V1", "result": "4/6"}, {"measurement": "Overall response rate (CR + PR)", "setting": "ALK fusion V1", "result": "2/6"}, {"measurement": "Partial response", "setting": "ALK fusion V1", "result": "2/6"}, {"measurement": "Progressive disease", "setting": "ALK fusion V1", "result": "2/6"}, {"measurement": "Stable disease", "setting": "ALK fusion V1", "result": "2/6"}, {"measurement": "Disease control rate (CR + PR + SD)", "setting": "ALK fusion V2", "result": "3/3"}, {"measurement": "Overall response rate (CR + PR)", "setting": "ALK fusion V2", "result": "1/3"}, {"measurement": "Partial response", "setting": "ALK fusion V2", "result": "1/3"}, {"measurement": "Progressive disease", "setting": "ALK fusion V2", "result": "0/3"}, {"measurement": "Stable disease", "setting": "ALK fusion V2", "result": "2/3"}, {"measurement": "Disease control rate (CR + PR + SD)", "setting": "ALK fusion V3", "result": "7/8"}, {"measurement": "Overall response rate (CR + PR)", "setting": "ALK fusion V3", "result": "5/8"}, {"measurement": "Partial response", "setting": "ALK fusion V3", "result": "5/8"}, {"measurement": "Progressive disease", "setting": "ALK fusion V3", "result": "1/8"}, {"measurement": "Stable disease", "setting": "ALK fusion V3", "result": "2/8"}, {"measurement": "Disease control rate (CR + PR + SD)", "setting": "ALK fusion V5", "result": "1/1"}, {"measurement": "Overall response rate (CR + PR)", "setting": "ALK fusion V5", "result": "1/1"}, {"measurement": "Partial response", "setting": "ALK fusion V5", "result": "1/1"}, {"measurement": "Progressive disease", "setting": "ALK fusion V5", "result": "0/1"}, {"measurement": "Stable disease", "setting": "ALK fusion V5", "result": "0/1"}, {"measurement": "Disease control rate (CR + PR + SD)", "setting": "ALK fusion others", "result": "5/8"}, {"measurement": "Overall response rate (CR + PR)", "setting": "ALK fusion others", "result": "2/8"}, {"measurement": "Partial response", "setting": "ALK fusion others", "result": "2/8"}, {"measurement": "Progressive disease", "setting": "ALK fusion others", "result": "3/8"}, {"measurement": "Stable disease", "setting": "ALK fusion others", "result": "3/8"}, {"measurement": "Disease control rate (CR + PR + SD)", "setting": "ALK mutation (any)", "result": "10/12"}, {"measurement": "Overall response rate (CR + PR)", "setting": "ALK mutation (any)", "result": "5/12"}, {"measurement": "Partial response", "setting": "ALK mutation (any)", "result": "5/12"}, {"measurement": "Progressive disease", "setting": "ALK mutation (any)", "result": "2/12"}, {"measurement": "Stable disease", "setting": "ALK mutation (any)", "result": "5/12"}, {"measurement": "Disease control rate (CR + PR + SD)", "setting": "ALK mutation p.E1210K p.D1203N", "result": "0/1"}, {"measurement": "Overall response rate (CR + PR)", "setting": "ALK mutation p.E1210K p.D1203N", "result": "0/1"}, {"measurement": "Partial response", "setting": "ALK mutation p.E1210K p.D1203N", "result": "0/1"}, {"measurement": "Progressive disease", "setting": "ALK mutation p.E1210K p.D1203N", "result": "1/1"}, {"measurement": "Stable disease", "setting": "ALK mutation p.E1210K p.D1203N", "result": "0/1"}, {"measurement": "Disease control rate (CR + PR + SD)", "setting": "ALK mutation p.G1202R", "result": "5/6"}, {"measurement": "Overall response rate (CR + PR)", "setting": "ALK mutation p.G1202R", "result": "3/6"}, {"measurement": "Partial response", "setting": "ALK mutation p.G1202R", "result": "3/6"}, {"measurement": "Progressive disease", "setting": "ALK mutation p.G1202R", "result": "1/6"}, {"measurement": "Stable disease", "setting": "ALK mutation p.G1202R", "result": "2/6"}, {"measurement": "Disease control rate (CR + PR + SD)", "setting": "ALK mutation p.I1171N", "result": "1/1"}, {"measurement": "Overall response rate (CR + PR)", "setting": "ALK mutation p.I1171N", "result": "0/1"}, {"measurement": "Partial response", "setting": "ALK mutation p.I1171N", "result": "0/1"}, {"measurement": "Progressive disease", "setting": "ALK mutation p.I1171N", "result": "0/1"}, {"measurement": "Stable disease", "setting": "ALK mutation p.I1171N", "result": "1/1"}, {"measurement": "Disease control rate (CR + PR + SD)", "setting": "ALK mutation p.I1171T", "result": "1/1"}, {"measurement": "Overall response rate (CR + PR)", "setting": "ALK mutation p.I1171T", "result": "0/1"}, {"measurement": "Partial response", "setting": "ALK mutation p.I1171T", "result": "0/1"}, {"measurement": "Progressive disease", "setting": "ALK mutation p.I1171T", "result": "0/1"}, {"measurement": "Stable disease", "setting": "ALK mutation p.I1171T", "result": "1/1"}, {"measurement": "Disease control rate (CR + PR + SD)", "setting": "[1]", "result": "0/1"}, {"measurement": "Overall response rate (CR + PR)", "setting": "[1]", "result": "0/1"}, {"measurement": "Partial response", "setting": "[1]", "result": "0/1"}, {"measurement": "Progressive disease", "setting": "[1]", "result": "1/1"}, {"measurement": "Stable disease", "setting": "[1]", "result": "0/1"}, {"measurement": "Disease control rate (CR + PR + SD)", "setting": "[2]", "result": "1/1"}, {"measurement": "Overall response rate (CR + PR)", "setting": "[2]", "result": "1/1"}, {"measurement": "Partial response", "setting": "[2]", "result": "1/1"}, {"measurement": "Progressive disease", "setting": "[2]", "result": "0/1"}, {"measurement": "Stable disease", "setting": "[2]", "result": "0/1"}, {"measurement": "Disease control rate (CR + PR + SD)", "setting": "[3]", "result": "1/1"}, {"measurement": "Overall response rate (CR + PR)", "setting": "[3]", "result": "1/1"}, {"measurement": "Partial response", "setting": "[3]", "result": "1/1"}, {"measurement": "Progressive disease", "setting": "[3]", "result": "0/1"}, {"measurement": "Stable disease", "setting": "[3]", "result": "0/1"}, {"measurement": "Disease control rate (CR + PR + SD)", "setting": "[4]", "result": "1/1"}, {"measurement": "Overall response rate (CR + PR)", "setting": "[4]", "result": "0/1"}, {"measurement": "Partial response", "setting": "[4]", "result": "0/1"}, {"measurement": "Progressive disease", "setting": "[4]", "result": "0/1"}, {"measurement": "Stable disease", "setting": "[4]", "result": "1/1"}, {"measurement": "Disease control rate (CR + PR + SD)", "setting": "[5]", "result": "1/1"}, {"measurement": "Overall response rate (CR + PR)", "setting": "[5]", "result": "0/1"}, {"measurement": "Partial response", "setting": "[5]", "result": "0/1"}, {"measurement": "Progressive disease", "setting": "[5]", "result": "0/1"}, {"measurement": "Stable disease", "setting": "[5]", "result": "1/1"}, {"measurement": "Disease control rate (CR + PR + SD)", "setting": "[6]", "result": "0/1"}, {"measurement": "Overall response rate (CR + PR)", "setting": "[6]", "result": "0/1"}, {"measurement": "Partial response", "setting": "[6]", "result": "0/1"}, {"measurement": "Progressive disease", "setting": "[6]", "result": "1/1"}, {"measurement": "Stable disease", "setting": "[6]", "result": "0/1"}, {"measurement": "Disease control rate (CR + PR + SD)", "setting": "[7]", "result": "1/1"}, {"measurement": "Overall response rate (CR + PR)", "setting": "[7]", "result": "1/1"}, {"measurement": "Partial response", "setting": "[7]", "result": "1/1"}, {"measurement": "Progressive disease", "setting": "[7]", "result": "0/1"}, {"measurement": "Stable disease", "setting": "[7]", "result": "0/1"}, {"measurement": "Disease control rate (CR + PR + SD)", "setting": "[8]", "result": "2/2"}, {"measurement": "Overall response rate (CR + PR)", "setting": "[8]", "result": "1/2"}, {"measurement": "Partial response", "setting": "[8]", "result": "1/2"}, {"measurement": "Progressive disease", "setting": "[8]", "result": "0/2"}, {"measurement": "Stable disease", "setting": "[8]", "result": "1/2"}, {"measurement": "Disease control rate (CR + PR + SD)", "setting": "[9]", "result": "0/1"}, {"measurement": "Overall response rate (CR + PR)", "setting": "[9]", "result": "0/1"}, {"measurement": "Partial response", "setting": "[9]", "result": "0/1"}, {"measurement": "Progressive disease", "setting": "[9]", "result": "1/1"}, {"measurement": "Stable disease", "setting": "[9]", "result": "0/1"}, {"measurement": "Disease control rate (CR + PR + SD)", "setting": "[10]", "result": "7/9"}, {"measurement": "Overall response rate (CR + PR)", "setting": "[10]", "result": "4/9"}, {"measurement": "Partial response", "setting": "[10]", "result": "4/9"}, {"measurement": "Progressive disease", "setting": "[10]", "result": "2/9"}, {"measurement": "Stable disease", "setting": "[10]", "result": "3/9"}, {"measurement": "ORR", "setting": "subjects with G1202R mutation", "result": 50, "unit": "%"}, {"measurement": "ORR", "setting": "subjects with variant 1", "result": 33.3, "unit": "%"}, {"measurement": "ORR", "setting": "subjects with variant 3", "result": 62.5, "unit": "%"}]}]}
